In the NIST ThermoML archive (doi:10.1016/j.fluid.2007.02.026):
± gives the expanded uncertainty stated by the source.

Experiments:
[1] = Liquid; for mass density: 101.33 kPa
[2] = refractive index (Na D-line) (dimensionless); details: 101.33 kPa, Liquid, Standard Abbe refractometry

mass density ([1]; 298.15 K)	refractive index ([2]; 298.15 K)	Structure (SMILES)	also measured
		N#Cc1cnccn1 [2-cyanopyrazine]	mass density ([1]; 293.15 K): 1174 ± 1.8 kg/m3; vapor or sublimation pressure ([1]; 476.15 K): 95.1 ± 5 kPa; refractive index ([2]; 293.15 K): 1.534 ± 0.0007
989.3 ± 1.5 kg/m3	1.5142 ± 0.0007	COc1ccccc1 [anisole]	vapor or sublimation pressure ([1]; 424.45 K): 95.1 ± 5 kPa
726.4 ± 1 kg/m3	1.4097 ± 0.0007	CCCCCCCCCC [decane]	vapor or sublimation pressure ([1]; 444.95 K): 95.1 ± 5 kPa
718.5 ± 1 kg/m3	1.3654 ± 0.0007	CC(C)OC(C)C [diisopropyl ether]	vapor or sublimation pressure ([1]; 339.65 K): 95.1 ± 5 kPa
943.9 ± 1.4 kg/m3	1.4282 ± 0.0007	CN(C)C=O [dimethylformamide]	vapor or sublimation pressure ([1]; 420.85 K): 95.1 ± 5 kPa; vapor or sublimation pressure ([1]; 420.95 K): 95.1 ± 5 kPa
698.6 ± 1 kg/m3		CCCCCCCC [octane]	vapor or sublimation pressure ([1]; 391.15 K): 95.1 ± 5 kPa

Structure (SMILES)	mass density ([1]; 298.15 K)	refractive index ([2]; 298.15 K)	also measured
CCC(C)=O [butanone]	799.8 ± 1.2 kg/m3	1.3769 ± 0.0007	vapor or sublimation pressure ([1]; 350.95 K): 95.1 ± 5 kPa
